Laboratory results: paper PMC10962542, “Inhibition of Aurora‐A/N‐Myc Protein–Protein Interaction Using Peptidomimetics: Understanding the Role of Peptide Cyclization” (Chembiochem, 2023)
Read-outs that look alike come from different tables or passages of the source. *1 amine or outer side, *2 acyl side, *3 side chain or, on linkers, in order; H or OH if unused. Where a SMILES comes first, the peptide text is derived from it. Bridges are numbered along the chain shown (N, C = ends). Maleimide(3,4-diyl) = O=C1NC(=O)C([*:2])=C1[*:1]

What was measured:
[1] = biological target: T1, N‐Myc/Aurora‐A interaction (Aurora‐A122‐403‐C290A/C393A) (Homo sapiens, UniProt O14965, C290A/C393A); assay: competition fluorescence anisotropy (FA) assay against fluorescein labelled N‐Myc61‐89; assay type: binding; also: equilibrated 2 h at room temperature
T1 construct: Aurora‐A 122‐403‐C290A/C393A protein was produced as described previously; made in house
T1 sequence (O14965 122-403 C290A/C393A): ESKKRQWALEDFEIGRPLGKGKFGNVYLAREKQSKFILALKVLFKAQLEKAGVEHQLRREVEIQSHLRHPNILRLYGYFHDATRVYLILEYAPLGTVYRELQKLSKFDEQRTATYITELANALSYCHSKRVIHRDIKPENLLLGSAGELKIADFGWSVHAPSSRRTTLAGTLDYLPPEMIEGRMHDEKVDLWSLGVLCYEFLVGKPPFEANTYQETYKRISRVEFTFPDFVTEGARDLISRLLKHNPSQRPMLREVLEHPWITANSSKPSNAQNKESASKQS
Protocol: Fluorescence anisotropy (FA) assays: All assays were performed using 384‐well plates (Greiner Bio‐one, UK). […] All samples were prepared in 25 mM Tris, 150 mM NaCl, 5 mM MgCl2, pH 7.5, and tested in triplicate using an EnVisionTM 2103 MultiLabel plate reader (Perkin Elmer; Waltham, MA, USA). The parameters were set as follows: Excitation wavelength=480 nm (30 nm bandwidth) and emission wavelength=535 nm (30 nm bandwidth). Measured data were processed and analysed as previously described.[31] Specifically, the perpendicular intensity (P) and parallel intensity (S) were subtracted by the control values and used for calculations of intensity and anisotropy using the following Equations 1, 2, 3, 4, and 5: (1) I=2PG+S (2) r=S-PG (3) Lb=r-rmin/λrmax-r+r-rmin (4) [drawing 1] (5) y=rmax+rmin-rmax/1+(x/x0)^p
For competition FA assays, the average anisotropy and the average standard deviation of the values derived from equation (2) were calculated and fit to a sigmoidal logistic model (equation (5)) using Origin 2021. […] Results are reported as IC50±SD, with data points representing the mean of three replicates and error bars indicating the corresponding SD. Where applicable, ΔΔG was determined as follows: ΔΔG=−RT ln (ΔIC50).

[2] = circular dichroism (CD) spectroscopy; assay type: physicochemical; settings: 150 mM NaCl, 5 mM MgCl2, pH 7.5, 5 °C, n=2, free‐thiol (red) samples with 5 mol equivalents TCEP; for MRE222 (mean residue ellipticity at 222 nm): 25 mM Tris, mean ± SD, SD; for % Helicity (estimated): from MRE222 by equation 7, 25 mM Tris
Protocol: Circular dichroism (CD): All samples were prepared in Tris buffer (25 mM Tris, 150 mM NaCl, 5 mM MgCl2, pH 7.5) with the exception of free sulfhydryl peptides, to which Tris(2‐carboxyethyl)phosphine (TCEP; 5 mol eq. relative to the peptide) was added. CD spectra were recorded using an APP Chirascan CD spectropolarimeter and 1 mm pathlength quartz cuvettes. Sample concentrations were typically 30–120 μM, as determined by UV−V absorption based on a tryptophan extinction coefficient of 5600 M^−1 cm^−1 and, for mal‐constrained variants, a maleimide coefficient of 1700 M^−1 cm^−1.[16, 32] […] Spectra were recorded in duplicate at 5 °C, over wavelengths ranging from 290 to 180 nm, with data collected every 1 nm (1 nm s^−1). A background spectrum for CD buffer alone was also recorded and background ellipticity values were subtracted from raw sample ellipticity values (θ) when calculating mean residue ellipticities (MREs) using Equation 6: (6) MRE=(θλ-θ0)xMw/nxlxc
Where [θ]λ is the observed ellipticity at a given wavelength λ in mdeg, [θ]0 is the ellipticity observed for the buffer, Mw =molar weight of the peptide in g mol^−1, n=number of residues; c=sample concentration (mg mL^−1); l=pathlength of the cuvette in mm. Estimates of peptide % helicity were made using Equation 7, [33] (7) %helicity=(MRE222-MREcoil)x100/-425001-3/n
where MRE222 is the MRE value at 222 nm, MREcoil=640‐45T (with T in °C)=415 deg cm^2 dmol^−1 res^−1 at 5 °C, and n is the number of backbone amide bonds including the N‐terminal acetyl.

SMILES | IC50 ([1]; SD) | MRE222 (mean residue ellipticity at 222 nm) [2] | % Helicity (estimated) [2] | IC50 [1]
CSCC[C@@H]1NC(=O)[C@@H](NC(=O)[C@@H](NC(=O)[C@@H](NC(=O)[C@H](Cc2c[nH]c3ccccc23)NC(=O)[C@H](CO)NC(=O)[C@@H]2CCCN2C(=O)[C@@H]2CCCN2C(=O)[C@H](CCC(=O)O)NC(=O)[C@H](CO)NC(=O)[C@H](CO)NC(=O)[C@H](Cc2c[nH]cn2)NC(=O)[C@H](CCC(=O)O)NC(=O)[C@H](C)NC(=O)[C@H](Cc2ccccc2)NC(=O)CNC(=O)[C@H](CCCNC(=N)N)NC(=O)[C@H](CO)NC(=O)[C@@H]2CCCN2C(=O)[C@H](CO)NC(=O)[C@H](CC(C)C)NC(C)=O)C(C)C)[C@@H](C)O)CSSC[C@@H](C(=O)N[C@@H](CC(N)=O)C(=O)N[C@@H](CCC(=O)O)C(=O)N[C@@H](CC(C)C)C(=O)N[C@@H](Cc2c[nH]c3ccccc23)C(=O)NCC(N)=O)NC(=O)[C@H](CC(C)C)NC(=O)[C@H](CC(C)C)NC1=O [N-Myc 61-89 E80C/E84C ox] (Ac-LSPSRGFAEHSSEPPSWVTCMLLCNELWG-NH2; disulfide 20-24) | 107 ± 19 µM | -2656 ± 28 deg cm^−1 dmol^−1 res^−1 | 8 ± 1% | 
CSCC[C@H](NC(=O)[C@H](CCC(=O)O)NC(=O)[C@@H](NC(=O)[C@@H](NC(=O)[C@H](Cc1c[nH]c2ccccc12)NC(=O)[C@H](CO)NC(=O)[C@@H]1CCCN1C(=O)[C@@H]1CCCN1C(=O)[C@H](CCC(=O)O)NC(=O)[C@H](CO)NC(=O)[C@H](CO)NC(=O)[C@H](Cc1c[nH]cn1)NC(=O)[C@H](CCC(=O)O)NC(=O)[C@H](C)NC(=O)[C@H](Cc1ccccc1)NC(=O)CNC(=O)[C@H](CCCNC(=N)N)NC(=O)[C@H](CO)NC(=O)[C@@H]1CCCN1C(=O)[C@H](CO)NC(=O)[C@H](CC(C)C)NC(C)=O)C(C)C)[C@@H](C)O)C(=O)N[C@H]1CSSC[C@@H](C(=O)N[C@@H](CC(C)C)C(=O)N[C@@H](Cc2c[nH]c3ccccc23)C(=O)NCC(N)=O)NC(=O)[C@H](CC(N)=O)NC(=O)[C@H](CCC(=O)O)NC(=O)[C@H](CC(C)C)NC1=O [N-Myc 61-89 L82C/E86C ox] (Ac-LSPSRGFAEHSSEPPSWVTEMCLENCLWG-NH2; disulfide 22-26) | 219 ± 23 µM | -2630 ± 119 deg cm^−1 dmol^−1 res^−1 | 8 ± 1% | 
CC(=O)N[C@@H](CC(C)C)C(=O)N[C@@H](CO)C(=O)N1CCC[C@H]1C(=O)N[C@@H](CO)C(=O)N[C@@H](CCCNC(=N)N)C(=O)NCC(=O)N[C@@H](Cc1ccccc1)C(=O)N[C@@H](C)C(=O)N[C@@H](CCC(=O)O)C(=O)N[C@@H](Cc1c[nH]cn1)C(=O)N[C@@H](CO)C(=O)N[C@@H](CO)C(=O)N[C@@H](CCC(=O)O)C(=O)N1CCC[C@H]1C(=O)N1CCC[C@H]1C(=O)N[C@@H](CO)C(=O)N[C@@H](Cc1c[nH]c2ccccc12)C(=O)N[C@H](C(=O)N[C@H](C(=O)N[C@@H](CCC(=O)O)C(=O)N[C@H]1CSSC[C@@H](C(=O)N[C@@H](CCC(=O)O)C(=O)N[C@@H](CC(C)C)C(=O)N[C@@H](Cc2c[nH]c3ccccc23)C(=O)NCC(N)=O)NC(=O)[C@H](CCC(=O)O)NC(=O)[C@H](CC(C)C)NC(=O)[C@H](CC(C)C)NC1=O)[C@@H](C)O)C(C)C [N-Myc 61-89 M81C/N85C ox] (Ac-LSPSRGFAEHSSEPPSWVTECLLECELWG-NH2; disulfide 21-25) | 92 ± 13 µM | -2894 ± 119 deg cm^−1 dmol^−1 res^−1 | 9 ± 1% | 
CSCC[C@H](NC(=O)[C@H](CCC(=O)O)NC(=O)[C@H](CS)NC(=O)[C@@H](NC(=O)[C@H](Cc1c[nH]c2ccccc12)NC(=O)[C@H](CO)NC(=O)[C@@H]1CCCN1C(=O)[C@@H]1CCCN1C(=O)[C@H](CCC(=O)O)NC(=O)[C@H](CO)NC(=O)[C@H](CO)NC(=O)[C@H](Cc1c[nH]cn1)NC(=O)[C@H](CCC(=O)O)NC(=O)[C@H](C)NC(=O)[C@H](Cc1ccccc1)NC(=O)CNC(=O)[C@H](CCCNC(=N)N)NC(=O)[C@H](CO)NC(=O)[C@@H]1CCCN1C(=O)[C@H](CO)NC(=O)[C@H](CC(C)C)NC(C)=O)C(C)C)C(=O)N[C@@H](CC(C)C)C(=O)N[C@@H](CS)C(=O)N[C@@H](CCC(=O)O)C(=O)N[C@@H](CC(N)=O)C(=O)N[C@@H](CCC(=O)O)C(=O)N[C@@H](CC(C)C)C(=O)N[C@@H](Cc1c[nH]c2ccccc12)C(=O)NCC(N)=O [N-Myc 61-89 T79C/L83C red] (Ac-LSPSRGFAEHSSEPPSWVCEMLCENELWG-NH2) | 152 ± 15 µM | -1907 ± 23 deg cm^−1 dmol^−1 res^−1 | 6 ± 1% | 

Next, values leading:

IC50 ([1]; SD) | MRE222 (mean residue ellipticity at 222 nm) [2] | % Helicity (estimated) [2] | IC50 [1] | SMILES
84 ± 9 µM | -2141 ± 88 deg cm^−1 dmol^−1 res^−1 | 7 ± 1% |  | CSCC[C@H](NC(=O)[C@@H]1CSSC[C@H](NC(=O)[C@@H]2CCCN2C(=O)[C@@H]2CCCN2C(=O)[C@H](CCC(=O)O)NC(=O)[C@H](CO)NC(=O)[C@H](CO)NC(=O)[C@H](Cc2c[nH]cn2)NC(=O)[C@H](CCC(=O)O)NC(=O)[C@H](C)NC(=O)[C@H](Cc2ccccc2)NC(=O)CNC(=O)[C@H](CCCNC(=N)N)NC(=O)[C@H](CO)NC(=O)[C@@H]2CCCN2C(=O)[C@H](CO)NC(=O)[C@H](CC(C)C)NC(C)=O)C(=O)N[C@@H](Cc2c[nH]c3ccccc23)C(=O)N[C@@H](C(C)C)C(=O)N[C@@H]([C@@H](C)O)C(=O)N1)C(=O)N[C@@H](CC(C)C)C(=O)N[C@@H](CC(C)C)C(=O)N[C@@H](CCC(=O)O)C(=O)N[C@@H](CC(N)=O)C(=O)N[C@@H](CCC(=O)O)C(=O)N[C@@H](CC(C)C)C(=O)N[C@@H](Cc1c[nH]c2ccccc12)C(=O)NCC(N)=O [N-Myc 61-89 S76C/E80 ox] (Ac-LSPSRGFAEHSSEPPCWVTCMLLENELWG-NH2; disulfide 16-20)
 | -1767 ± 72 deg cm^−1 dmol^−1 res^−1 | 6 ± 1% | ≥ 500 µM | CSCC[C@@H]1NC(=O)[C@H](CCC(=O)O)NC(=O)[C@H]([C@@H](C)O)NC(=O)[C@@H](NC(=O)[C@H](Cc2c[nH]c3ccccc23)NC(=O)[C@H](CO)NC(=O)[C@@H]2CCCN2C(=O)[C@@H]2CCCN2C(=O)[C@H](CCC(=O)O)NC(=O)[C@H](CO)NC(=O)[C@H](CO)NC(=O)[C@H](Cc2c[nH]cn2)NC(=O)[C@H](CCC(=O)O)NC(=O)[C@H](C)NC(=O)[C@H](Cc2ccccc2)NC(=O)CNC(=O)[C@H](CCCNC(=N)N)NC(=O)[C@H](CO)NC(=O)[C@@H]2CCCN2C(=O)[C@H](CO)NC(=O)[C@H](CC(C)C)NC(C)=O)CSC2=C(SC[C@@H](C(=O)N[C@@H](CC(C)C)C(=O)N[C@@H](CCC(=O)O)C(=O)N[C@@H](CC(N)=O)C(=O)N[C@@H](CCC(=O)O)C(=O)N[C@@H](CC(C)C)C(=O)N[C@@H](Cc3c[nH]c4ccccc34)C(=O)NCC(N)=O)NC1=O)C(=O)NC2=O [N-Myc 61-89 V78C/L82C mal] (Ac-LSPSRGFAEHSSEPPSWCTEMCLENELWG-NH2; linker 18-22 via Maleimide(3,4-diyl))
